What was measured:
[1] = test system: hESCs; test: Arginine / ADMA fold change ratio (integrated EICs) in dosed hESCs vs controls; settings: for Arg fold change/ADMA fold change: EIC areas, controls vs. dosed
Experimental: All tested chemicals were purchased from Sigma-Aldrich (St. Louis, Mo.). Cells were dosed with drugs at a concentration equivalent to their published serum circulating therapeutic dosages. Dosing was performed on hESCs in 6-well plates in triplicate, i.e. three wells per plate. The plates were dosed in triplicate, so there were a total of nine dosed wells. In parallel, there were nine “control” wells, in which hESCs were cultured with mTeSR1 containing no drug, and three wells containing Matrigel with mTeSR1 medium without hESCs that served as medium controls. Lastly, three wells of dosed medium controls were prepared, containing Matrigel, mTeSR1 and drug, but no hESCs (FIG. 1). These medium controls provided baseline mass spectral data. On the first day of dosage, the determined concentration of drug was dissolved in mTeSR1, and then 2.5 mL of this solution was added to each dosed well of hESCs. Each day, for four days, the medium was removed and new dosed medium was added. On the fourth day, the medium was removed and added to acetonitrile to make a 40% acetonitrile solution, as outlined in the Sample Preparation section below.
Mass spectrometry was performed using an Agilent QTOF LC/MS system consisting of a G6520AA QTOF high resolution mass spectrometer capable of exact mass MS and MS/MS. In order to facilitate separation of small molecules with a wide range of polarity and to allow increased retention of hydrophilic species, Hydrophilic Interaction Liquid Chromatography (Alpert 1990) was employed. Each sample was run for 30 minutes with the gradient shown in Table 3 at a flow rate of 0.5 mL/min, using 0.1% formic acid in water (Solvent A) and 0.1% formic acid in acetonitrile (Solvent B). Electrospray ionization was employed using a dual ESI source, with an Agilent isocratic pump continuously delivering an internal mass reference solution into the source at approx. 0.01 mL/min. The mass range of the instrument was set to 100-1700 Da. A Phenomenex Luna HILIC column with dimensions 3×100 mm 3 μm particle size was used and maintained at 30° C. 5 μl of each sample was injected. Data acquisition was performed with Agilent MassHunter using high-resolution exact mass conditions.
Valproate is known to cause neural tube defects (DiLiberti et al. 1984) while nitric oxide synthase activity is essential for neural tube closure (Nachmany et al. 2006).

[2] = test system: WA09 hESCs; test: LC-MS metabolomics: abundance changes of metabolites in hESCs dosed at circulating dose; type: cell-based, human
Experimental: (§1) These medium controls provided baseline mass spectral data.
(§2) The 2.5 mL of spent media per well from Example 1 was added to 1.67 mL acetonitrile to make a 40% acetonitrile solution. The acetonitrile acts to “quench” the spent media sample, slowing or halting many metabolic processes and aiding in precipitation of cellular proteins. Samples were either stored at −80° C. for later analysis, or for immediate analysis, 250 μL of the quenched solution was mixed with 250 μL of water, to a final concentration of 20% acetonitrile, then added to a 3 kDa molecular weight cut-off filter spin column (Microcon YM-3 Centrifugal Filter, Millipore, Billerica, Mass.). Each sample was then centrifuged in an IEC CL31R Multispeed Centrifuge (Thermo Scientific, Waltham, Mass.) at 13,000×g at 4° C. for 200 minutes. Following centrifugation, the flow-through was saved then dried for several hours in a Savant High Capacity Speedvac Plus Concentrator. The concentrated sample was then dissolved in 50 μL of 0.1% formic acid prior to LC-MS analysis.
(§3) 5 μl of each sample was injected.
(§4) Following LC-MS, chromatograms were inspected for reproducibility. LC-MS runs with total ion counts that vary by more than 25% were repeated to ensure that samples could be accurately compared. These runs were then used to create mass features that correspond to molecules detected across the different LC-MS runs. Mass features were extracted from the LC-MS data using MassHunter Qualitative Analysis software (Agilent Technologies). The following criteria were used as general guidelines, however some flexibility and optimization was needed. m/z values within the range of 75-1500, with a charge of +1 or −1, and a centroid height greater than 1000 were used to generate “mass features.” The mass peaks that pass these criteria were used to fit isotope and adduct (Na^+, K^+, and NH4^+) patterns corresponding to individual molecules, and to establish the abundance of each mass feature. The abundance is calculated by MassHunter software as the sum of the isotopic and adduct peaks that correspond to a single molecular feature. After data deconvolution, mass features showing at least two ions (e.g. (M^+H)^+ and (M^+H)^++1 or (M^+H)^+ and (M^+Na)^+) and an abundance value greater than 50000 for positive-ion mode data and 10000 in negative-ion mode data were included in the data set used for binning of the mass features.
The media represents a major factor in the experimental system, in that it contributes many peaks to mass spectra. This can be accounted for in a data dependent manner to select for mass feature bins, which are present at significant levels above the media. Mass feature bins present solely in the presence of cells (not detected in media) or with average abundance levels different than uncultured media were considered to be secreted, excreted, consumed, or identified metabolites.
The exact mass of the metabolite must be within 10 ppm of the known mass of the compound. 2) The retention time of the metabolite detected in the cell media must be within + or −30 seconds of a reference standard on which MS data had been acquired under the same conditions. The reference standards were dissolved in mTeSR media and prepared in exactly the same manner (described above) as the samples from the cells, including the addition of acetonitrile, Centricon centrifugal filtration, drying then dissolution in formic acid prior to LC-MS analysis. 3) The MS-MS fragmentation spectra of the metabolite detected in the cell media must be a reasonable match with that of the reference standard, including abundances and m/z values of the fragment ions. If published MS-MS spectra are available, the MS-MS spectra must also be a reasonable match.

[3] = test system: WA09 human embryonic stem (hES) cells; test: PLS-DA prediction of teratogenicity from secretome of treated hES cells (Example 9); settings: DevTox pharmaceutical
From the text: These included 11 known teratogens and 11 known non-teratogens. The current model is based on the mean fold change (treatment versus its associated intra-experimental control) of 15 metabolites common among the secretome of hES cells treated with pharmaceutical agents and unknown chemical compounds.

[4] = test system: WA09 hESCs; test: Random forest prediction of teratogenicity from metabolomics of spent media of dosed hESCs; type: cell-based, human; settings: for Classification by the refined random forest model (FIG. 3): 18-feature model, 26 drug treatment experiments; for Predicted teratogenicity (random forest statistical model): blind study, model trained on TS1, 142 mass features, circulating dose
Experimental: WA09 hESCs, obtained from WiCell Research Institute (NIH National Stem Cell Bank, Madison, Wis.) were cultured in 6-well plates on Matrigel (BD Biosciences, San Jose, Calif.), in mTeSR1 medium (Stem Cell Technologies, Vancouver, BC) incubated at 37° C. under 5% CO2 in a Thermo Electron Form a Series II Water Jacket CO2 Incubator. hESCs were passaged every three or four days at a 1:3 or 1:6 seeding density for routine culture conditions. For dosing experiments, hESCs were passaged at a low density of 1:10 or 1:12 so that they would not require passaging during the […] dosing protocol. To passage hES cells, the StemPro® EZPassage™ disposable stem cell passaging tool (Invitrogen, Carlsbad, Calif.) was used to detach the cells from the wells. Detached cells were removed with a pipette and distributed to new Matrigel plates.
as §1, §2, §3, §4
Following feature selection by MassHunter, the data was further preprocessed by MassProfiler (Agilent) software which aligns mass features across multiple LC-MS data files. Mass features were generated for data from each drug treatment experiment (dosed and control) using the default alignment settings in MassProfiler with the requirement that a feature be present in at least 80% of the samples in one treatment. The mass feature datasets for each drug treatment experiment were further processed in a global manner using custom analysis scripts executed in the R statistical software environment. […]

[5] = high dose (H = 10x circulating dose)
[6] = low dose (L = 0.1x circulating dose)

Row | Structure (SMILES) | Arg/ADMA Prediction [1] | Arg fold change/ADMA fold change [1] | Changes in metabolites on dosing [2] | Abundance of succinic acid ([2]; drug-treated vs control) | % Non (PLS-DA class probability non-teratogen) [3, 5] | % Ter (PLS-DA class probability teratogen) [3, 5] | Confidence (difference between class probabilities) [3, 5] | Prediction [3, 5] | % Non (PLS-DA class probability non-teratogen) [3, 6] | % Ter (PLS-DA class probability teratogen) [3, 6] | Confidence (difference between class probabilities) [3, 6] | Prediction [3, 6] | Classification by the refined random forest model (FIG. 3) [4] | Predicted teratogenicity (random forest statistical model) [4] | Concentration of GABA in the secretome of hESCs ([2]; dosed hESCs) | Abundance of asymmetric dimethylarginine (ADMA) ([2]; drug-treated vs control)
1 | O=c1[nH]cc(F)c(=O)[nH]1 [5-Fluorouracil] | Ter | 43.93 | most profound changes in many metabolites | significant down regulation | 0.32 | 0.68 | 0.36 | Ter | 0.28 | 0.72 | 0.44 | Ter |  |  |  | 
2 | CC1=C(/C=C/C(C)=C/C=C/C(C)=C\C(=O)O)C(C)(C)CCC1 [Accutane] | Ter | 0.55 |  |  | 0.3 | 0.7 | 0.4 | Ter | 0.33 | 0.67 | 0.34 | Ter | misclassified as non-teratogens | Non |  | 
3 | CCCCc1oc2ccccc2c1C(=O)c1cc(I)c(OCCN(CC)CC)c(I)c1 [Amiodarone] | Ter | 1.64 |  |  |  |  |  |  |  |  |  |  |  | Ter |  | 
4 | CS(=O)(=O)OCCCCOS(C)(=O)=O [Busulfan] | Ter | 1.12 |  |  | 0.28 | 0.72 | 0.44 | Ter | 0.29 | 0.71 | 0.42 | Ter |  |  | Increased concentrations | 
5 | Nc1ccn([C@@H]2O[C@H](CO)[C@@H](O)[C@@H]2O)c(=O)n1 [Cytosine Arabinoside] | Ter | 67.01 | most profound changes in many metabolites | significant down regulation |  |  |  |  |  |  |  |  |  |  |  | 
6 | NC(=O)NO [Hydroxyurea] | Ter | 2.52 |  | significant down regulation | 0.32 | 0.68 | 0.36 | Ter | 0.64 | 0.36 | 0.28 | Non |  |  |  | 
7 | CO[C@H]1/C=C/O[C@@]2(C)Oc3c(C)c(O)c4c(O)c(c(/C=N/N5CCN(C)CC5)c(O)c4c3C2=O)NC(=O)/C(C)=C\C=C\[C@H](C)[C@H](O)[C@@H](C)[C@@H](O)[C@@H](C)[C@H](OC(C)=O)[C@@H]1C [Rifampicin] | Ter | 0.81 |  |  | 0.27 | 0.73 | 0.46 | Ter | 0.46 | 0.54 | 0.08 | Ter | misclassified as non-teratogens | Ter |  | 
8 | CCCC(CCC)C(=O)O [Valproic Acid] | Ter | 2.11 |  | significant down regulation |  |  |  |  |  |  |  |  |  |  |  | significant fold decrease

Source: patent publication US8703424B2, “Predicting human developmental toxicity of pharmaceuticals using human stem-like cells and metabolomics” (Stemina Biomarker Discovery, Inc., priority 2010, dated 2014)
